# Measurements from BindingDB's records for patent US11878965 (Gilead Sciences, 2024).
# Biological target: Protein-arginine deiminase type-4 (Homo sapiens, UniProt Q9UM07)
# Assay: In Vitro PAD4 BAEE Biochemical Assay
# Description: One hundred nanoliters of test compounds dissolved in DMSO at various concentrations were dispensed into a 384-well black OptiPlate using a Labcyte Echo instrument. Ten microliters of a solution of recombinant PAD4 and calcium chloride diluted in PAD4 assay buffer (50 mM MOPS [3-(N-morpholino) propanesulfonic acid], pH 7.6; 50 mM sodium chloride; 0.05% Tween-20; 2 mM dithiothreitol) was added to the compound-containing plate and was incubated for 30 minutes at 25° C. Ten microliters of a solution of BAEE (Sigma-Aldrich #B4500) diluted in PAD4 assay buffer was then added to start the reaction. Final concentrations were 5 nM PAD4, 2 mM calcium chloride, and 3 mM BAEE. The reaction mixture was incubated at 25° C. for 2 hours and was stopped with the addition of 10 microliters of a solution of 75 mM EDTA (Ethylenediaminetetraacetic acid) in PAD4 assay buffer. Thirty microliters of detection solution (5 mM o-phthalaldehyde, 50 mM MOPS [3-(N-morpholino) propanesulfonic acid], pH 7.6; 50 mM sodium chloride; 0.05% Tween-20; 5 mM dithiothreitol) was then added and the reaction was incubated for 1 hour at 25° C.
# Protein-arginine deiminase type-4, sequence (Q9UM07 whole entry): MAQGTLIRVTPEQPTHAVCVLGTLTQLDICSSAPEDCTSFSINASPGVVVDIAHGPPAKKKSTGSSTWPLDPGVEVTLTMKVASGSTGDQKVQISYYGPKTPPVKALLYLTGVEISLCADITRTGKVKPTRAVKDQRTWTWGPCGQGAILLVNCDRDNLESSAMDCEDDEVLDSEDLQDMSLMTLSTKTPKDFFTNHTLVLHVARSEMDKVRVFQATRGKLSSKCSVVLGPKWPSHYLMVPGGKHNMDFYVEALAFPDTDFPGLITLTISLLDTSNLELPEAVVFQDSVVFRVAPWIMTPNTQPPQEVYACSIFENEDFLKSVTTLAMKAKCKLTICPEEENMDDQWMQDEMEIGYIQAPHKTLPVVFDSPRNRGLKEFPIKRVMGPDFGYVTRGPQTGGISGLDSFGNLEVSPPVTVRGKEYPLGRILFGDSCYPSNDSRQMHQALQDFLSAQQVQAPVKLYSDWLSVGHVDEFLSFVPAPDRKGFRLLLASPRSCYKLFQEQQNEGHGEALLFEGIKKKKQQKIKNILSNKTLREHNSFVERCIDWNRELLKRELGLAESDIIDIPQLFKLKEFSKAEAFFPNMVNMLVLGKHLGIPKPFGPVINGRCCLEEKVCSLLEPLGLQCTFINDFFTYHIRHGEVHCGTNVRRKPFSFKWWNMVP
row,Structure (SMILES),IC50 [µM]
1,"COc1cc(C(=O)N2[C@H]3CC[C@@H]2[C@H](N)C3)cc2nc(-c3cc4ccc([C@@H](C)NC(=O)N5CC(F)(F)C5)nc4n3CC3CC3)n(C)c12 [US11878965, Example 238]",0.0287
2,"COc1cc(C(=O)N2C[C@H](N)CC[C@@H]2C)cc2nc(-c3cc4ccc(-c5cccnc5-c5cccnc5Cl)nc4n3CC3CC3)n(C)c12 [US11878965, Example 258]",0.245
3,"COc1cc(C(=O)N2C[C@H](N)CC[C@@H]2C)cc2nc(-c3cc4ccc(N5C(=O)CC[C@H]5C)nc4n3CC3CC3)n(C)c12 [US11878965, Example 284]",1.24

# More lines, in order of falling IC50, values ahead:
row,IC50 [µM],Structure (SMILES)
1,0.229,"COc1cc(C(=O)N2[C@H]3CC[C@@H]2[C@H](N)C3)cc2nc(-c3cc4ccc([C@@H](C)NC(=O)C56CC(F)(C5)C6)c(F)c4n3CC3CC3)n(C)c12 [US11878965, Example 144]"
2,0.0684,"COc1cc(C(=O)N2C[C@H](N)[C@@H]3CC[C@H]2C3)cc2nc(-c3cc4ccc([C@@H](C)NC(=O)c5cccnc5Cl)nc4n3CC3CC3)n(C)c12 [US11878965, Example 302]"
